Results from patent publication US7906491B2 (Univisitair Medisch Centrum Utrecht, priority 2002, dated 2011).

Legend:
Epac = target: T1, Epac (Homo sapiens, UniProt O95398); assay: Relative affinity for Epac (cAMP = 1), in vitro; type: binding; details: relative to cAMP = 1
T1 sequence (O95398 1-923): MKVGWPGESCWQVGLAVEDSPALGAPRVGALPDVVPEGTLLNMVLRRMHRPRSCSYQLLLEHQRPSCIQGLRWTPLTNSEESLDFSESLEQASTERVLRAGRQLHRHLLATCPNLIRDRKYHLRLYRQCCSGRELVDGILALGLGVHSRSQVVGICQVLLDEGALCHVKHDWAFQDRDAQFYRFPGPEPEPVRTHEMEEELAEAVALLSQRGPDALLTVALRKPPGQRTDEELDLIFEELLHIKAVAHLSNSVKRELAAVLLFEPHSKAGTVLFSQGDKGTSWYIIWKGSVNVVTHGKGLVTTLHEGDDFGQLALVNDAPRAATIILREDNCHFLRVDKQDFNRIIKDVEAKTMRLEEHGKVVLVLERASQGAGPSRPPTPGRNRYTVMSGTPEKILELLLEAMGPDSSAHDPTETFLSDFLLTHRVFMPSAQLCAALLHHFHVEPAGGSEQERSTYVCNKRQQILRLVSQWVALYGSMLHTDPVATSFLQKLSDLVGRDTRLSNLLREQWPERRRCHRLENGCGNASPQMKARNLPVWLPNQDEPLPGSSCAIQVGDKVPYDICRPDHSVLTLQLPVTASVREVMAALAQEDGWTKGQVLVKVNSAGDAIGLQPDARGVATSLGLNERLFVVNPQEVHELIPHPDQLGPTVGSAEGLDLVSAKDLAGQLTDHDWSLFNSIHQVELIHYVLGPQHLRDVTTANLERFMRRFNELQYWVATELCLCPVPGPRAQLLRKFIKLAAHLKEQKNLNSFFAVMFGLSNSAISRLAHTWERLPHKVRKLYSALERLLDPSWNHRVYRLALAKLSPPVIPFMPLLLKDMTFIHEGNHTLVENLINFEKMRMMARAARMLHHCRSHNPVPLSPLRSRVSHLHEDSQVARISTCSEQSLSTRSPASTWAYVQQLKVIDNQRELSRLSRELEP

Rap1 = Rap1 activation assay in Ovcar3 cells; type: cell-based
Description: (§1) A: 8-pCPT-2′-O-Me-cAMP stimulates cell adhesion. Upper panel: quantification of Ovcar3 cells adhering to fibronectin after treatment with increasing concentrations of 8-pCPT-2′-O-Me-cAMP. Lower panel: Ovcar3 cells were treated with increasing concentrations of 8-pCPT-2′-O-Me-cAMP for 15 min, cells were lysed and analyzed for activation of Rap1 (upper blot) and CREB (lower blot). Total Rap1 levels are shown (middle blot). B: 8-pCPT-2′-O-Me-cAMP increases the rate of cell adhesion. Upper panel: quantification of Ovcar3 cells adhering to fibronectin at various time points. Lower panel: cells were treated with 60 μM 8-pCPT-2′-O-Me-cAMP for the indicated times. Cell lysates were analyzed for activation of Rap1 (upper blot) and CREB (lower blot). Total levels of Rap1 in cell lysates are shown (middle blot). C: Ovcar3 cells were either pre-incubated at 37° C. for 30 min with the PKA inhibitor H-89 (10 μM) 30 min prior to seeding onto the wells (‘Short’) or H-89 was added 30 min prior to trypsinization and during the recovery period (‘Long’) and seeded onto wells in the absence or presence of 8-pCPT-2′-O-Me-cAMP (100 μM). Cells were allowed to adhere for 1 h. D, cAMP-induced adhesion to fibronectin is blocked by inhibitors of Rap1. Left panel: Ovcar3 cells were transiently transfected with either mock DNA, increasing concentrations of HA-Rap1GAP II (0.5, 1, 2 or 6 μg, respectively), HA-Rap1GAPI (6 μg) or HA-RBD of RalGDS (6 μg), respectively. Cells were treated with 8-Br-cAMP or 8-pCPT-2′-O-Me-cAMP and adhesion to fibronectin was determined. Right upper panel: luciferase counts of total input cells per well in the above experiment are shown. Right lower panel: expression of HA-Rap1GAPs in the above experiment is shown.
Rap activation assays were performed as described previously (16-18). […] Proteins were eluted with Laemmli sample buffer and analyzed by sodium dodecyl sulphate (SDS)-polyacrylamide gel electrophoresis and Western blotting using Rap1 antibodies. As a control, Rap1 levels in whole cell lysates were determined.

CREB = CREB phosphorylation in Ovcar3 cells; type: cell-based; details: concentration of 200 μM
Description: as §1, with “Left panel: Ovcar3 cells were transiently transfected with either mock DNA, increasing concentrations of HA-Rap1GAP II (0.5, 1, 2 or 6 μg, respectively), HA-Rap1GAPI (6 μg) or HA-RBD of RalGDS (6 μg), respectively.” left out, “Right upper panel: luciferase counts of total input cells per well in the above experiment are shown. Right lower panel: expression of HA-Rap1GAPs in the above experiment is shown.” left out

Relative affinity CAMP = 1 Epac (Epac): 4.6
EC50 (Rap1; Homo sapiens, OVCAR-3, 0.25 h, 15 min, FIG. 7A): ~30 µM
SMILES: CO[C@@H]1[C@@H]2OP(=O)(O)OC[C@H]2O[C@H]1n1c(Sc2ccc(Cl)cc2)nc2c(N)ncnc21 [Compound I-007, 8-(4-chloro-phenylthio)-2′-O-methyladenosine-3′,5′-cyclic monophosphate]
Rap1 activation in time-course (Rap1; 60 μM, FIG. 7B): rapid and sustained Rap1 activation
CREB phosphorylation (CREB): did not induce CREB phosphorylation
